Consider one molecule from patent US11077194B2, “Nitric oxide releasing pharmaceutical compositions” (Novan, Inc., priority 2012, dated 2021).

Marks after values point to notes of the source that are not given here.

The subject of the experiment is oxazolone-induced ear swelling. Nature of the experiment: Oxazolone-induced ear swelling assay (model of allergic contact dermatitis). Format: in vivo, BALB/c mice. The settings on record: TOP. On the procedure: Groups of 5 BALB/c male mice weighing 22±2 g were used. The animals were sensitized by application of oxazolone (100 μL, 1.5% in acetone) to their preshaved abdominal surface. Seven days later, test substances (20 mg/ear) and vehicle (20 μL/ear) were applied topically to the anterior and posterior surfaces of the right ear 30 min before and 15 min after oxazolone (1%, 20 μL/ear) challenge. Ear swelling was measured with a Dyer model micrometer gauge at 24 hours after oxazolone challenge as an index of inflammation. Ear edema was calculated by subtracting the thickness of the left ear (normal control) from the right ear (treated ear). Percent inhibition was calculated according to the formula: (Ic−It)/Ic×100, where Ic and It refers to increase of ear thickness (mm) in control and treated mice, respectively. One-way ANOVA and Dunnett's test were used to determine statistical significance between vehicle control and treated groups. Significance is set at P<0.05.
Test articles (0.2% and 2% Nitricil™ NVN1 Ointment) described in Example 6 were evaluated for possible anti-inflammatory activity in the oxazolone-induced ear swelling assay in BALB/c mice, a model of allergic contact dermatitis. Test substances and vehicles were each administered topically (TOP) at 30 minutes before and 15 minutes after challenge with the second application of oxazolone.
The test system used was a 7-day oxazolone-induced ear swelling assay. Oxazolone-induced ear swelling is useful as a model of inflammation. […] Ear swelling was measured with a Dyer model micrometer gauge at 24 hours after oxazolone challenge as an index of inflammation. Ear edema was calculated by subtracting the thickness of the left ear (normal control) from the right ear (treated ear) (Table 18). […]
Percent inhibition was calculated according to the formula: (Ic−It)/Ic×100, where Ic and It refer to increase of ear thickness (mm) in control and treated mice, respectively. […]

Turning to `C[C@@H]1C[C@H]2[C@@H]3CCC4=CC(=O)C=C[C@]4(C)[C@@]3(F)[C@@H](O)C[C@]2(C)[C@@]1(O)C(=O)CO` [Dexamethasone], the “Ear Swelling % Inhibition (vs. Vehicle A, acetone/ethanol 1/1)” value (Example 7 study, ointments 20 mg/ear × 2, dexamethasone 0.3 mg/ear × 2, 24 hours after challenge) is listed as 85* %. For the same molecule, the “% inhibition of oxazolone-induced ear swelling vs acetone/ethanol vehicle” value (Example 9 study, ointments 20 mg/ear × 2, dexamethasone 0.1 mg/ear × 2) came to 86%. The “Net Swelling on Right Ear (Mean ± SEM)” value (Example 9 study, ointments 20 mg/ear × 2, dexamethasone 0.1 mg/ear × 2, 24 hours after challenge) was 3.2 ± 0.4 × 0.01 mm.
